In the supplement of paper PMC11061612:

Legend:
AZD5991 = compound: Cc1c2c(nn1C)CSCc1cc(n(C)n1)CSc1cc(c3ccccc3c1)OCCCc1c(C(=O)O)n(C)c3c-2c(Cl)ccc13 [AZD5991]; details: max 1 µM
Summary of the method: (§1)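 Plates with 1536 wells received cancer cell lines in 7.5 μl of DMEM/F12 or RPMI containing 10% FBS. After 24 hours at 37°C and 5% CO2, cells were dosed for 72 hours with final DMSO typically 0.2%, and viability was read by CellTiter-Glo 2.0 luminescence scaled between blank-well and DMSO-well means. The single-agent IC50 was taken from a logistic fit of the dose responses made with a non-linear mixed effects model, that logistic curve having two parameters.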

AZD1390 = compound: CC(C)n1c(=O)n(C)c2cnc3cc(F)c(-c4ccc(OCCCN5CCCCC5)nc4)cc3c21 [AZD1390]; details: max 0.3 µM
Summary of the method: as §1

Gemcitabine = compound: Nc1ccn([C@@H]2O[C@H](CO)[C@@H](O)C2(F)F)c(=O)n1 [Gemcitabine]; details: max 0.3 µM
Summary of the method: as §1

AZD5363 = compound: C1CN(CCC1(C(=O)N[C@@H](CCO)C2=CC=C(C=C2)Cl)N)C3=NC=NC4=C3C=CN4 [AZD5363]; details: max 10 µM
Summary of the method: as §1

SN-38 = compound: CCc1c2c(nc3ccc(O)cc13)-c1cc3c(c(=O)n1C2)COC(=O)[C@]3(O)CC [SN-38]; details: max 0.3 µM
Summary of the method: as §1

AZD8186 = compound: C[C@@H](Nc1cc(F)cc(F)c1)c1cc(C(=O)N(C)C)cc2c(=O)cc(N3CCOCC3)oc12 [AZD8186]; details: max 10 µM
Summary of the method: as §1

5-Fluorouracil = compound: O=c1[nH]cc(F)c(=O)[nH]1 [5-Fluorouracil]; details: max 20 µM
Summary of the method: as §1

Alisertib = compound: COc1cc(Nc2ncc3c(n2)-c2ccc(Cl)cc2C(c2c(F)cccc2OC)=NC3)ccc1C(=O)O [Alisertib]; details: max 10 µM
Summary of the method: as §1

AZD1775 = compound: C=CCn1c(=O)c2cnc(Nc3ccc(N4CCN(C)CC4)cc3)nc2n1-c1cccc(C(C)(C)O)n1 [AZD1775]; details: max 3 µM
Summary of the method: as §1

Olaparib = compound: O=C(c1cc(Cc2n[nH]c(=O)c3ccccc23)ccc1F)N1CCN(C(=O)C2CC2)CC1 [Olaparib]; details: max 10 µM
Summary of the method: as §1

MK-2206 = compound: NC1(c2ccc(-c3nc4ccn5c(=O)[nH]nc5c4cc3-c3ccccc3)cc2)CCC1 [MK-2206]; details: max 10 µM
Summary of the method: as §1

SG3199 = compound: CC1=CN2[C@@H](C1)C=NC3=CC(=C(C=C3C2=O)OC)OCCCCCOC4=C(C=C5C(=C4)N=C[C@@H]6CC(=CN6C5=O)C)OC [SG3199]; details: max 0.001 µM
Summary of the method: as §1

[1] = compound: O=C(Nc1ccc2[nH]nc(-c3ccncc3)c2c1)[C@@H]1CCN(CC(=O)N2CCN(c3ccc(-c4ncccn4)cc3)CC2)C1; details: max 5 µM
Summary of the method: as §1

Palbociclib = compound: CC(=O)c1c(C)c2cnc(Nc3ccc(N4CCNCC4)cn3)nc2n(C2CCCC2)c1=O [Palbociclib]; details: max 10 µM
Summary of the method: as §1

AZD0156 = compound: CN(C)CCCOc1ccc(-c2ccc3ncc4c(c3c2)n(C2CCOCC2)c(=O)n4C)cn1 [AZD0156]; details: max 3 µM
Summary of the method: as §1

Gefitinib = compound: COc1cc2ncnc(Nc3ccc(F)c(Cl)c3)c2cc1OCCCN1CCOCC1 [Gefitinib]; details: max 10 µM
Summary of the method: as §1

Etoposide = compound: COc1cc([C@@H]2c3cc4c(cc3[C@@H](O[C@@H]3O[C@@H]5CO[C@@H](C)O[C@H]5[C@H](O)[C@H]3O)[C@H]3COC(=O)[C@H]23)OCO4)cc(OC)c1O [Etoposide]; details: max 10 µM
Summary of the method: as §1

Paclitaxel = compound: CC(=O)O[C@H]1C(=O)[C@@]2(C)[C@H]([C@H](OC(=O)c3ccccc3)[C@]3(O)C[C@H](OC(=O)[C@H](O)[C@@H](NC(=O)c4ccccc4)c4ccccc4)C(C)=C1C3(C)C)[C@]1(OC(C)=O)CO[C@@H]1C[C@@H]2O [Paclitaxel]; details: max 3 µM
Summary of the method: as §1

AZD2811 = compound: CCN(CCO)CCCOc1ccc2c(Nc3cc(CC(=O)Nc4cccc(F)c4)[nH]n3)ncnc2c1 [AZD2811]; details: max 1 µM
Summary of the method: as §1

Trametinib = compound: CC(=O)Nc1cccc(-n2c(=O)n(C3CC3)c(=O)c3c(Nc4ccc(I)cc4F)n(C)c(=O)c(C)c32)c1 [Trametinib]; details: max 1 µM
Summary of the method: as §1

Savolitinib = compound: C[C@@H](c1ccc2nccn2c1)n1nnc2ncc(-c3cnn(C)c3)nc21 [Savolitinib]; details: max 1 µM
Summary of the method: as §1

AZD5153 = compound: COc1nnc2ccc(N3CCC(c4ccc(OCCN5CCN(C)C(=O)[C@H]5C)cc4)CC3)nn12 [AZD5153]; details: max 1 µM
Summary of the method: as §1

Doxorubicin = compound: COc1cccc2c1C(=O)c1c(O)c3c(c(O)c1C2=O)C[C@@](O)(C(=O)CO)C[C@@H]3O[C@H]1C[C@H](N)[C@H](O)[C@H](C)O1 [Doxorubicin]; details: max 1 µM
Summary of the method: as §1

AZD4320 = compound: CN(CC[C@H](CSC1=CC=CC=C1)NC2=C(C=C(C=C2)S(=O)(=O)NC(=O)C3=CC=C(C=C3)N4CCC(CC4)[C@H](C5=CC=CC=C5C6=CC=C(C=C6)Cl)O)S(=O)(=O)C(F)(F)F)CCO [AZD4320]; details: max 1 µM
Summary of the method: as §1

Carboplatin = compound: C1CC(C1)(C(=O)[O-])C(=O)[O-].N.N.[Pt+2] [Carboplatin]; details: max 10 µM
Summary of the method: as §1

AZD6738 = compound: C[C@@H]1COCCN1C2=NC(=NC(=C2)C3(CC3)[S@](=N)(=O)C)C4=C5C=CNC5=NC=C4 [AZD6738]; details: max 10 µM
Summary of the method: as §1

Lapatinib = compound: CS(=O)(=O)CCNCc1ccc(-c2ccc3ncnc(Nc4ccc(OCc5cccc(F)c5)c(Cl)c4)c3c2)o1 [Lapatinib]; details: max 10 µM
Summary of the method: as §1

Crizotinib = compound: C[C@@H](Oc1cc(-c2cnn(C3CCNCC3)c2)cnc1N)c1c(Cl)ccc(F)c1Cl [Crizotinib]; details: max 10 µM
Summary of the method: as §1

Venetoclax = compound: CC1(C)CCC(CN2CCN(c3ccc(C(=O)NS(=O)(=O)c4ccc(NCC5CCOCC5)c([N+](=O)[O-])c4)c(Oc4cnc5[nH]ccc5c4)c3)CC2)=C(c2ccc(Cl)cc2)C1 [Venetoclax]; details: max 1 µM
Summary of the method: as §1

Taselisib = compound: Cc1nc(-c2cn3c(n2)-c2ccc(-c4cnn(C(C)(C)C(N)=O)c4)cc2OCC3)n(C(C)C)n1 [Taselisib]; details: max 10 µM
Summary of the method: as §1

SRA737 = compound: N#Cc1cnc(Nc2cc(NC[C@H]3CNCCO3)c(C(F)(F)F)cn2)cn1 [SRA737]; details: max 10 µM
Summary of the method: as §1

Prexasertib = compound: COc1cccc(OCCCN)c1-c1cc(Nc2cnc(C#N)cn2)n[nH]1 [Prexasertib]; details: max 1 µM
Summary of the method: as §1

Selumetinib = compound: Cn1cnc2c(F)c(Nc3ccc(Br)cc3Cl)c(C(=O)NOCCO)cc21 [Selumetinib]; details: max 10 µM
Summary of the method: as §1

AZD7648 = compound: Cc1cc2ncnn2cc1Nc1ncc2c(n1)n(C1CCOCC1)c(=O)n2C [AZD7648]; details: max 10 µM
Summary of the method: as §1

Dasatinib = compound: CC1=C(C(=CC=C1)Cl)NC(=O)C2=CN=C(S2)NC3=CC(=NC(=N3)C)N4CCN(CC4)CCO [Dasatinib]; details: max 2 µM
Summary of the method: as §1

Cell Line | IC50, cell viability 72 h (AZD5991) [nM] | IC50, cell viability 72 h (AZD1390) [nM] | IC50, cell viability 72 h (Gemcitabine) [nM] | IC50, cell viability 72 h (AZD5363) [nM] | IC50, cell viability 72 h (SN-38) [nM] | IC50, cell viability 72 h (AZD8186) [nM] | IC50, cell viability 72 h (5-Fluorouracil) [nM] | IC50, cell viability 72 h (Alisertib) [nM] | IC50, cell viability 72 h (AZD1775) [nM] | IC50, cell viability 72 h (Olaparib) [nM] | IC50, cell viability 72 h (MK-2206) [nM] | IC50, cell viability 72 h (SG3199) [nM] | IC50, cell viability 72 h [1] [nM] | IC50, cell viability 72 h (Palbociclib) [nM] | IC50, cell viability 72 h (AZD0156) [nM] | IC50, cell viability 72 h (Gefitinib) [nM] | IC50, cell viability 72 h (Etoposide) [nM] | IC50, cell viability 72 h (Paclitaxel) [nM] | IC50, cell viability 72 h (AZD2811) [nM] | IC50, cell viability 72 h (Trametinib) [nM] | IC50, cell viability 72 h (Savolitinib) [nM] | IC50, cell viability 72 h (AZD5153) [nM] | IC50, cell viability 72 h (Doxorubicin) [nM] | IC50, cell viability 72 h (AZD4320) [nM] | IC50, cell viability 72 h (Carboplatin) [nM] | IC50, cell viability 72 h (AZD6738) [nM] | IC50, cell viability 72 h (Lapatinib) [nM] | IC50, cell viability 72 h (Crizotinib) [nM] | IC50, cell viability 72 h (Venetoclax) [nM] | IC50, cell viability 72 h (Taselisib) [nM] | IC50, cell viability 72 h (SRA737) [nM] | IC50, cell viability 72 h (Prexasertib) [nM] | IC50, cell viability 72 h (Selumetinib) [nM] | IC50, cell viability 72 h (AZD7648) [nM] | IC50, cell viability 72 h (Dasatinib) [nM]
RPMI-8402 (T-Lymphoblastic Leukemia) | 504 | > 300 | 23.5 | 2500 | 2.43 | 5450 | 9930 | 214 | 183 | > 10000 | 1150 | > 1 | 4090 | 300 | > 3000 | 9050 | 158 | 6.86 | 33.3 | > 1000 | > 1000 | 63.1 | 68.1 | 247 | > 10000 | 1300 | 4400 | 1630 | > 1000 | 1030 | 1320 | 5.84 | > 10000 | > 10000 | > 2000
GCIY (Gastric Carcinoma) | > 1000 | > 300 | > 300 | > 10000 | 90 | > 10000 | > 20000 | 1210 | > 3000 | > 10000 | > 10000 | > 1 | > 5000 | > 10000 | > 3000 | > 10000 | > 10000 | 549 | > 1000 | 271 | > 1000 | > 1000 | > 1000 | > 1000 | > 10000 | 3030 | > 10000 | > 10000 | > 1000 | 895 | > 10000 | 41.9 | > 10000 | > 10000 | 589
CAL-85-1 (Breast Carcinoma) | > 1000 | > 300 | 246 | > 10000 | 96.5 | > 10000 | > 20000 | > 10000 | 2040 | > 10000 | > 10000 | > 1 | > 5000 | > 10000 | > 3000 | > 10000 | > 10000 | 66.7 | > 1000 | 351 | > 1000 | 534 | > 1000 | > 1000 | > 10000 | > 10000 | > 10000 | > 10000 | > 1000 | 6290 | > 10000 | > 1000 | > 10000 | > 10000 | 1210
C32 (Melanoma) | > 1000 | > 300 | 54.1 | > 10000 | 61.7 | > 10000 | > 20000 | > 10000 | > 3000 | > 10000 | > 10000 | > 1 | 174 | > 10000 | > 3000 | > 10000 | > 10000 | 346 | > 1000 | 4.11 | > 1000 | > 1000 | > 1000 | > 1000 | > 10000 | 8160 | > 10000 | > 10000 | > 1000 | > 10000 | > 10000 | 52.7 | 323 | > 10000 | > 2000
COR-L105 (Lung Adenocarcinoma) | > 1000 | > 300 | > 300 | > 10000 | > 300 | > 10000 | > 20000 | > 10000 | 2080 | > 10000 | > 10000 | > 1 | > 5000 | > 10000 | > 3000 | 2490 | > 10000 | > 3000 | > 1000 | 244 | > 1000 | > 1000 | > 1000 | > 1000 | > 10000 | > 10000 | 6660 | > 10000 | > 1000 | 7360 | > 10000 | > 1000 | > 10000 | > 10000 | > 2000
